Reference: publication PMC7170360 (Drug Delivery, 2020)

How the values were obtained:
Hep-G2 cells [1] = test: Cellular uptake test (10-HCPT in cells by HPLC-MS/MS); assay type: cell-based, human; conditions: pH 7.4, 72 h incubation, compared with HES-10-HCPT micelles and HES-10-HCPT-SS-Ly micelles
Description: The in vitro cytotoxicity of HES-10-HCPT-SS-Ly micelles was evaluated by MTT assay and Hep-G2 cell lines were used as model object. The Hep-G2 cells were seeded by using 96-well plates and the cell density was 6 × 10^3. The temperature of cell culture was 37 °C and the concentration of CO2 was 5%. The culture medium was removed after 24 h and the micelle solutions with different concentrations are added. The incubation time was 48 h and 72 h respectively to fully evaluate the relationship between cytotoxicity and culture time. Then, 50 μL MTT (0.25 mg/mL) was added to each well and the supernatant was removed. The precipitated formazan crystals were dissolved by DMSO solution after 4 h. The OD values were determined by using an ELIASA reader and the detection wavelength was 492 nm. In addition, cellular uptake of HES-10-HCPT-SS-Ly micelles was also assessed in Hep-G2 cell line. Similarly, the culture medium was removed and different 10-HCPT preparations were added with concentrations of 1.0 mg/mL 24 h after incubation. […] Briefly, cells were collected and lysed using a French Pressure Cell, the lysate was clarified by centrifugation, and the supernatant liquid was processed by applying liquid–liquid extraction. Then, the concentration of 10-HCPT in Hep-G2 cells was determined by HPLC–MS/MS method.

Hep-G2 cells [2] = test: MTT cytotoxicity assay; assay type: cell-based; conditions: Homo sapiens
Description: The in vitro cytotoxicity of HES-10-HCPT-SS-Ly micelles was evaluated by MTT assay and Hep-G2 cell lines were used as model object. The Hep-G2 cells were seeded by using 96-well plates and the cell density was 6 × 10^3. The temperature of cell culture was 37 °C and the concentration of CO2 was 5%. The culture medium was removed after 24 h and the micelle solutions with different concentrations are added. The incubation time was 48 h and 72 h respectively to fully evaluate the relationship between cytotoxicity and culture time. Then, 50 μL MTT (0.25 mg/mL) was added to each well and the supernatant was removed. The precipitated formazan crystals were dissolved by DMSO solution after 4 h. The OD values were determined by using an ELIASA reader and the detection wavelength was 492 nm. In addition, cellular uptake of HES-10-HCPT-SS-Ly micelles was also assessed in Hep-G2 cell line. Similarly, the culture medium was removed and different 10-HCPT preparations were added with concentrations of 1.0 mg/mL 24 h after incubation. The 96-well plate was incubated at room temperature on a plate shaker for 24 h, the cells were then washed three times with PBS solution. […] Then, the concentration of 10-HCPT in Hep-G2 cells was determined by HPLC–MS/MS method.

[3] = Rat pharmacokinetics after intravenous administration; assay type: in vivo, Sprague-Dawley rats; conditions: Sprague-Dawley, plasma, 1.5 mg/kg
Description: The pharmacokinetics of HES-10-HCPT-SS-Ly micelles and 10-HCPT injection in Sprague-Dawley rats were evaluated in this study (n = 6). Briefly, HES-10-HCPT-SS-Ly micelles and 10-HCPT injection were injected, respectively. The dose of 10-HCPT was 1.5 mg/kg in both groups. 0.2 mL blood was collected 5 min, 10 min, 15 min, 30 min, 60 min, 2 h, 4 h, 6 h, 8 h, 12 h, 24 h, 48 h, and 72 h after administration. The concentration of 10-HCPT in plasma was determined by HPLC–MS/MS method.

CC[C@@]1(O)C(=O)OCc2c1cc1n(c2=O)Cc2cc3cc(O)ccc3nc2-1 [free 10-HCPT, 10-Hydroxy camptothecin]
cellular uptake by Hep G2 cells (Hep-G2 cells [1]): more easily taken up | IC50 (Hep-G2 cells [2]; HepG2, culture medium pH 7.4, MTT): 5.1 µM | IC50 (Hep-G2 cells [2]; HepG2, pH 5.5, MTT): 4.3 µM | half-life [3]: 10 min
